Test results from US12655116B2, “Substituted isophthalic acid diamides” (Bayer Aktiengesellschaft, priority 2020, dated 2026).

Columns and labels:
AMARE [1] = assay: Post-emergence herbicidal action against AMARE; assay type: in vivo, Amaranthus retroflexus; conditions: Amaranthus retroflexus, 504 h, visual assessment about 3 weeks after treatment, 100% = plants have died, 0% = like control plants
Summary of the method: (§1)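 Percent herbicidal action is rated by eye about 3 weeks after treatment against untreated controls, where 100% means dead plants and 0% means like controls. Plants in sandy loam are sprayed on green parts at the one-leaf stage with aqueous WP or EC preparations at 600 to 800 l/ha plus 0.2% wetting agent.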

HORMU [2] = assay: Post-emergence herbicidal action against HORMU; assay type: in vivo, Hordeum murinum; conditions: Hordeum murinum, 504 h
Summary of the method: as §1

SETVI [3] = assay: Pre-emergence herbicidal action against SETVI; assay type: in vivo, Setaria viridis; conditions: Setaria viridis, 504 h; for pest or weed control at 80 g/ha: dosage 80 g/ha
Summary of the method: (§2)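 Seeds sown in sandy loam, soil-covered; compound sprayed on soil surface pre-emergence. Application: WP/EC, 600–800 l/ha, 0.2% wetting agent. Readout: visual % damage at 3 weeks.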

ALOMY [4] = assay: Pre-emergence herbicidal action against ALOMY; assay type: in vivo, Alopecurus myosuroides; conditions: Alopecurus myosuroides, 504 h, pre-emergence; for pest or weed control at 80 g/ha: scored visually after 3 weeks vs untreated controls (100% = plants have died, 0% = like control plants)
Summary of the method: as §2

VERPE = assay: Pre-emergence herbicidal action against VERPE; assay type: in vivo, Veronica persica; conditions: Veronica persica, 504 h
Summary of the method: as §2

MATIN [5] = assay: Post-emergence herbicidal action against MATIN; assay type: in vivo, Matricaria inodora; conditions: Tripleurospermum inodorum, 504 h; for pest or weed control at 20 g/ha: dosage 20 g/ha
Summary of the method: as §1

POLCO = assay: Post-emergence herbicidal action against POLCO; assay type: in vivo, Polygonum convolvulus; conditions: Fallopia convolvulus, 504 h
Summary of the method: as §1

SETVI [6] = assay: Post-emergence herbicidal action against SETVI; assay type: in vivo, Setaria viridis; conditions: Setaria viridis, 504 h
Summary of the method: as §1

AVEFA [7] = assay: Post-emergence herbicidal action against AVEFA; assay type: in vivo, Avena fatua; conditions: Avena fatua, 504 h, visual assessment about 3 weeks after treatment, 100% = plants have died, 0% = like control plants
Summary of the method: as §1

MATIN [8] = assay: Pre-emergence herbicidal action against MATIN; assay type: in vivo, Matricaria inodora; conditions: Tripleurospermum inodorum, 504 h; for pest or weed control at 80 g/ha: dosage 80 g/ha
Summary of the method: as §2

HORMU [9] = assay: Pre-emergence herbicidal action against HORMU; assay type: in vivo, Hordeum murinum; conditions: Hordeum murinum, 504 h, pre-emergence
Summary of the method: as §2

ABUTH = assay: Pre-emergence herbicidal action against ABUTH; assay type: in vivo, Abutilon theophrasti; conditions: Abutilon theophrasti, 504 h; for pest or weed control at 80 g/ha: scored visually after 3 weeks vs untreated controls (100% = plants have died, 0% = like control plants)
Summary of the method: as §2

ALOMY [10] = assay: Post-emergence herbicidal action against ALOMY; assay type: in vivo, Alopecurus myosuroides; conditions: Alopecurus myosuroides, 504 h, visual assessment about 3 weeks after treatment vs untreated controls; for pest or weed control at 20 g/ha: dosage 20 g/ha
Summary of the method: as §1

AMARE [11] = assay: Pre-emergence herbicidal action against AMARE; assay type: in vivo, Amaranthus retroflexus; conditions: Amaranthus retroflexus, 504 h, 100% = plants have died, 0% = like control plants
Summary of the method: as §2

STEME [12] = assay: Post-emergence herbicidal action against STEME; assay type: in vivo, Stellaria media; conditions: Stellaria media, 504 h
Summary of the method: as §1

PHBPU = assay: Post-emergence herbicidal action against PHBPU; assay type: in vivo, Pharbitis purpurea; conditions: Ipomoea purpurea, 504 h
Summary of the method: as §1

STEME [13] = assay: Pre-emergence herbicidal action against STEME; assay type: in vivo, Stellaria media; conditions: Stellaria media, 504 h; for pest or weed control at 80 g/ha: dosage 80 g/ha
Summary of the method: as §2

ECHCG [14] = assay: Post-emergence herbicidal action against ECHCG; assay type: in vivo, Echinochloa crus-galli; conditions: Echinochloa crus-galli, 504 h; for pest or weed control at 20 g/ha: dosage 20 g/ha
Summary of the method: as §1

VIOTR = assay: Post-emergence herbicidal action against VIOTR; assay type: in vivo, Viola tricolor; conditions: Viola tricolor, 504 h
Summary of the method: as §1

AVEFA [15] = assay: Pre-emergence herbicidal action against AVEFA; assay type: in vivo, Avena fatua; conditions: Avena fatua, 504 h, pre-emergence
Summary of the method: as §2

LOLRI = assay: Pre-emergence herbicidal action against LOLRI; assay type: in vivo, Lolium rigidum; conditions: Lolium rigidum, 504 h
Summary of the method: as §2

ECHCG [16] = assay: Pre-emergence herbicidal action against ECHCG; assay type: in vivo, Echinochloa crus-galli; conditions: Echinochloa crus-galli, 504 h
Summary of the method: as §2

[17] = 320 g/ha, scored visually after 3 weeks, 100% = plants have died, 0% = like control plants
[18] = scored visually after 3 weeks vs untreated controls
[19] = 20 g/ha, scored visually after 3 weeks, 100% = plants have died, 0% = like control plants

CNC(=O)c1c(C(F)(F)F)ccc(C(=O)Nc2nnnn2C)c1SC [Example 1-81]
80%: pest or weed control at 80 g/ha (HORMU [2]; dosage 80 g/ha) | pest or weed control at 80 g/ha (ALOMY [4]) | pest or weed control at 20 g/ha (MATIN [5]) | pest or weed control at 80 g/ha (HORMU [9]) | pest or weed control at 20 g/ha (ALOMY [10]) | pest or weed control at 80 g/ha (PHBPU; dosage 80 g/ha) | pest or weed control at 20 g/ha (ECHCG [14]) | pest or weed control at 80 g/ha (VIOTR; 80 g/ha) | pest or weed control at 320 g/ha (LOLRI; 320 g/ha)
100%: pest or weed control at 80 g/ha (SETVI [3]) | pest or weed control at 320 g/ha (SETVI [3]; dosage 320 g/ha) | pest or weed control at 320 g/ha (ALOMY [4]; [17]) | pest or weed control at 320 g/ha (VERPE; dosage 320 g/ha) | pest or weed control at 80 g/ha (MATIN [5]; dosage 80 g/ha) | pest or weed control at 80 g/ha (MATIN [8]) | pest or weed control at 320 g/ha (MATIN [8]; dosage 320 g/ha) | pest or weed control at 320 g/ha (HORMU [9]; 320 g/ha) | pest or weed control at 80 g/ha (ABUTH) | pest or weed control at 320 g/ha (ABUTH; Dosage: 320 g/ha, scored visually after 3 weeks, 100% = plants have died, 0% = like control plants) | pest or weed control at 80 g/ha (AMARE [11]; [18]) | pest or weed control at 320 g/ha (AMARE [11]; 320 g/ha, scored visually after 3 weeks) | pest or weed control at 80 g/ha (STEME [13]) | pest or weed control at 320 g/ha (STEME [13]; dosage 320 g/ha) | pest or weed control at 320 g/ha (AVEFA [15]; [17]) | pest or weed control at 80 g/ha (ECHCG [16]) | pest or weed control at 320 g/ha (ECHCG [16]; 320 g/ha)
90%: pest or weed control at 20 g/ha (AMARE [1]) | pest or weed control at 80 g/ha (AMARE [1]; 80 g/ha) | pest or weed control at 80 g/ha (POLCO; dosage 80 g/ha) | pest or weed control at 80 g/ha (SETVI [6]; dosage 80 g/ha) | pest or weed control at 80 g/ha (AVEFA [7]; 80 g/ha) | pest or weed control at 80 g/ha (ALOMY [10]; dosage 80 g/ha) | pest or weed control at 20 g/ha (STEME [12]) | pest or weed control at 80 g/ha (STEME [12]; 80 g/ha) | pest or weed control at 80 g/ha (ECHCG [14]; dosage 80 g/ha) | pest or weed control at 80 g/ha (AVEFA [15])

CCn1nnnc1NC(=O)c1ccc(Cl)c(C(=O)NC2CC2)c1Cl [Example 2-173]
90%: pest or weed control at 20 g/ha (POLCO; dosage 20 g/ha) | pest or weed control at 20 g/ha (ABUTH; dosage 20 g/ha, scored visually after 3 weeks vs untreated controls, 100% = plants have died, 0% = like control plants, read-out: Pre-emergence action against ABUTH (herbicidal activity in percent)) | pest or weed control at 20 g/ha (PHBPU; dosage 20 g/ha) | pest or weed control at 20 g/ha (ECHCG [14]) | pest or weed control at 20 g/ha (AVEFA [15]; [19]) | pest or weed control at 80 g/ha (LOLRI; 80 g/ha)
80%: pest or weed control at 80 g/ha (VERPE; dosage 80 g/ha) | pest or weed control at 5 g/ha (PHBPU; dosage 5 g/ha) | pest or weed control at 5 g/ha (ECHCG [14]; dosage 5 g/ha)
100%: pest or weed control at 20 g/ha (AMARE [1]) | pest or weed control at 20 g/ha (HORMU [2]; dosage 20 g/ha) | pest or weed control at 80 g/ha (SETVI [3]) | pest or weed control at 80 g/ha (ALOMY [4]) | pest or weed control at 20 g/ha (ALOMY [4]; [19]) | pest or weed control at 20 g/ha (MATIN [5]) | pest or weed control at 5 g/ha (SETVI [6]; dosage 5 g/ha) | pest or weed control at 20 g/ha (SETVI [6]; dosage 20 g/ha) | pest or weed control at 20 g/ha (AVEFA [7]; 20 g/ha) | pest or weed control at 20 g/ha (MATIN [8]; dosage 20 g/ha) | pest or weed control at 80 g/ha (MATIN [8]) | pest or weed control at 80 g/ha (HORMU [9]) | pest or weed control at 80 g/ha (ABUTH) | pest or weed control at 20 g/ha (ALOMY [10]) | pest or weed control at 20 g/ha (AMARE [11]; 20 g/ha, scored visually after 3 weeks vs untreated controls) | pest or weed control at 80 g/ha (AMARE [11]; [18]) | pest or weed control at 20 g/ha (STEME [12]) | pest or weed control at 5 g/ha (STEME [12]; dosage 5 g/ha) | pest or weed control at 20 g/ha (STEME [13]; dosage 20 g/ha) | pest or weed control at 80 g/ha (STEME [13]) | pest or weed control at 20 g/ha (VIOTR; 20 g/ha) | pest or weed control at 80 g/ha (AVEFA [15]) | pest or weed control at 80 g/ha (ECHCG [16])
